Results taken from ChEMBL document CHEMBL5325454, “Synthesis, anti-ferroptosis, anti-quorum sensing, antibacterial and DNA interaction studies of chromene-hydrazone derivatives” (Bioorg Med Chem, 2023).
≈ marks a conversion by molar mass, not a printed value. Calls of active or inactive are those of the source. The calls are words filed in the database; no cut-off is given here.

Legend:
DNA [1] = assay: Induction of Escherichia coli supercoiled pBR322 DNA cleavage in absence of Cu2+ ion incubated overnight by GelRed DNA gel staining based electrophoresis analysis; assay type: nucleic-acid assay
DNA [2] = assay: Induction of Escherichia coli supercoiled pBR322 DNA cleavage assessed as cleavage of DNA into open-circular forms in presence of Copper(II)acetate incubated overnight by GelRed DNA gel staining based electrophoresis analysis; assay type: nucleic-acid assay
Vibrio harveyi [3] = assay: Antibacterial activity against Vibrio harveyi BB120 assessed as inhibition of bacterial growth upto 250 uM measured at 24 hrs by broth microdilution assay; assay type: functional, organism-based
[4] = Inhibition of quorum sensing system in Vibrio harveyi BB120 assessed as reduction in luminescence incubated for 5 hrs under shaking condition by luminescence microplate reader analysis
Vibrio harveyi [5] = assay: Antibacterial activity against Vibrio harveyi BB120 assessed as inhibition of bacterial growth measured at 24 hrs by broth microdilution assay; assay type: functional
HaCaT [6] = assay: Anti-ferroptotic activity against Erastin-induced ferroptosis in human HaCaT cells assessed as increase in cell viability at 5 uM preincubated with compound for 4 hrs followed by […] administration and measured after 24 hrs by MTT assay relative to control; assay type: functional; settings: time 28 hrs
Calf thymus DNA [7] = assay: Binding affinity to calf thymus DNA assessed as apparent binding constant upto 30 uM by UV-Vis spectroscopic analysis; assay type: nucleic-acid assay; settings: Bos taurus
HaCaT [8] = assay: Anti-ferroptotic activity against Erastin-induced ferroptosis in human HaCaT cells assessed as increase in cell viability at 5 uM preincubated with compound for 4 hrs followed by […] administration and measured after 24 hrs by MTT assay; assay type: functional, cell-based; settings: time 28.0 hrs
Calf thymus DNA [9] = assay: Binding affinity to calf thymus DNA assessed as hyperchromicity by UV-Vis spectroscopic analysis; assay type: nucleic-acid assay; settings: Bos taurus; dose <= 30.0 µM
Vibrio harveyi [10] = assay: Antibacterial activity against Vibrio harveyi BB120 assessed as inhibition of bacterial growth at 1 to 1024 ug/ml measured at 24 hrs by broth microdilution assay; assay type: functional, organism-based; settings: dose 1-1024 µg/ml
Staphylococcus aureus [11] = assay: Antibacterial activity against methicillin-resistant Staphylococcus aureus MW2 assessed as zone of inhibition incubated overnight by disc diffusion assay; assay type: functional
Escherichia coli = assay: Antibacterial activity against Escherichia coli assessed as inhibition of bacterial growth; assay type: functional, organism-based
Staphylococcus aureus [12] = assay: Antibacterial activity against methicillin-resistant Staphylococcus aureus MW2 assessed as inhibition of bacterial growth measured at 24 hrs by broth microdilution assay; assay type: functional
HaCaT [13] = assay: Anti-ferroptotic activity against Erastin-induced ferroptosis in human HaCaT cells assessed as cell viability at 5 uM preincubated with compound for 4 hrs followed by […] administration and measured after 24 hrs by MTT assay relative to control; assay type: functional; settings: time 28 hrs

Row | Structure (SMILES) | Activity (DNA [1]) | Activity (DNA [2]) | MIC (Vibrio harveyi [5]) [µM] | Activity (HaCaT [6]) [%] | inhibition [4] | other results
1 | CC1(C)C=Cc2c(ccc(/C=N/NS(=O)(=O)c3ccccc3)c2O)O1 | inactive | Active |  |  |  | Activity (Vibrio harveyi [3]): inactive; IC50 [4]: 22 µM
2 | CC1(C)C=Cc2c(ccc(/C=N/NC(=O)c3ccc(O)cc3)c2O)O1 | inactive | Active | 3.9 (≈ 1.32 µg/mL) | 44 | inactive | 
3 | CC1(C)C=Cc2c(ccc(/C=N/NS(=O)(=O)c3ccc(C(F)(F)F)cc3)c2O)O1 | inactive | Active |  |  |  | Kapp (Calf thymus DNA [7]): 6.02 10^3/M; Activity (HaCaT [8]): inactive; Activity (Vibrio harveyi [3]): inactive; IC50 [4]: > 250 µM; Activity (Calf thymus DNA [9]): Dose-Dependent Effect
4 | CC1(C)C=Cc2c(ccc(/C=N/NC(=O)c3ccc(Cl)cc3)c2O)O1 | inactive | Active | > 250 | 44 | inactive | 
5 | CC1(C)C=Cc2c(ccc(/C=N/NC(=O)c3ccncc3)c2O)O1 | inactive | Active | 15.6 (≈ 5.04 µg/mL) | 34 | inactive | 
6 | CC1(C)C=Cc2c(ccc(/C=N/NC(N)=S)c2O)O1 | inactive | Active | 125 (≈ 34.7 µg/mL) | 54 | inactive | 
7 | Cc1ccc(C(=O)N/N=C/c2ccc3c(c2O)C=CC(C)(C)O3)cc1 | inactive | Active | > 250 | 44 | inactive | 
8 | CC1(C)C=Cc2c(ccc(/C=N/NC(=O)c3cccnc3)c2O)O1 | inactive | Active | 10 (≈ 3.23 µg/mL) | 34 | inactive | 
9 | COc1ccc(C(=O)N/N=C/c2ccc3c(c2O)C=CC(C)(C)O3)cc1 | inactive | Active |  | 44 | inactive | Activity (Vibrio harveyi [10]): inactive
10 | CC1(C)C=Cc2c(ccc(/C=N/NC(=O)c3ccc(O)cc3O)c2O)O1 | inactive | Active | 10 (≈ 3.54 µg/mL) | 34 | inactive | Kapp (Calf thymus DNA [7]): 5.73 10^3/M; inhibition zone (IZ) (Staphylococcus aureus [11]): 11 mm; Activity (Escherichia coli): inactive; MIC (Staphylococcus aureus [12]): 64 µg/mL (≈ 181 µM); Activity (Calf thymus DNA [9]): Dose-Dependent Effect
11 | CC1(C)C=Cc2c(ccc(/C=N/NC(N)=O)c2O)O1 | inactive | Active |  |  |  | Kapp (Calf thymus DNA [7]): 9.55 10^3/M; Activity (HaCaT [13]): 18%; Activity (Vibrio harveyi [3]): inactive; IC50 [4]: 27 µM; Activity (Calf thymus DNA [9]): Dose-Dependent Effect
12 | Cc1ccc(S(=O)(=O)N/N=C/c2ccc3c(c2O)C=CC(C)(C)O3)cc1 | inactive | Active |  |  |  | Activity (HaCaT [8]): inactive; Activity (Vibrio harveyi [3]): inactive; IC50 [4]: > 250 µM
13 | CC1(C)C=Cc2c(ccc(/C=N/NC(=O)c3ccc(C(C)(C)C)cc3)c2O)O1 | inactive | Active |  | 44 | inactive | Activity (Vibrio harveyi [10]): inactive
14 | O=c1c(O)c(-c2ccc(O)c(O)c2)oc2cc(O)ccc12 [FISETIN] |  |  |  | 42 |  | 
15 | CC1(C)C=Cc2c(ccc(/C=N/NC(=O)c3ccccn3)c2O)O1 | inactive | Active |  | 34 | inactive | Activity (Vibrio harveyi [10]): inactive
16 | CC(=O)N/N=C/c1ccc2c(c1O)C=CC(C)(C)O2 | inactive | Active | 40 (≈ 10.4 µg/mL) |  | inactive | Activity (HaCaT [8]): Active
17 | CC1(C)C=Cc2c(ccc(/C=N/NC(=O)c3ccc(Br)cc3)c2O)O1 | inactive | Active |  | 44 | inactive | Activity (Vibrio harveyi [10]): inactive
18 | CC1(C)C=Cc2c(ccc(/C=N/NC(=O)c3ccc([N+](=O)[O-])cc3)c2O)O1 | inactive | Active |  | 34 | inactive | Activity (Vibrio harveyi [10]): inactive
19 | CC1(C)C=Cc2c(ccc(/C=N/NC(=O)c3ccccc3)c2O)O1 | inactive | Active | 7.8 (≈ 2.51 µg/mL) | 44 | inactive | 
20 | Cc1cc(C(=O)N/N=C/c2ccc3c(c2O)C=CC(C)(C)O3)ccc1[N+](=O)[O-] | inactive | Active | 62.5 (≈ 23.8 µg/mL) | 34 | inactive | 
